Reference: US6410480B1, “Herbicidally active 3-hydroxy-4-aryl-5-oxopyrazoline derivatives” (Syngenta Crop Protection, Inc., priority 1998, dated 2002)

Tested on: all of the weeds tested
Assay: Experimental comparison with the prior art: herbicidal action, pre- and post-emergence, overall statement
Format: in vivo
Conditions: 500 g of active substance/ha, against all of the weeds tested
Source text: The following compounds were examined for their herbicidal activity: Monocotyledonous and dicotyledonous weeds are sown in standard soil in plastic pots. Immediately after sowing, the test substances are applied (500 l of water/ha) as an aqueous suspension (prepared using a 25% wettable powder (Example F3, b)) or as an emulsion (prepared using a 25% emulsion concentrate (Example F1, c)). The application rate is 500 g of active substance/ha. The test plants are subsequently grown under optimum conditions in a greenhouse. 3 weeks after the application, evaluation is carried out using a nine-level scale of ratings (1=complete damage, 9=no effect). Ratings of 1 to 4 (in particular 1 to 3) mean a good to very good herbicidal action. Test plants: Alopecurus (Alo), Avena (Ave), Lolium (Lot), Setaria (Set), Panicum (Pan), Sorghum (Sor), Digitaria (Dig), Echinocloa (Ech) and Brachiaria (Bra). Monocotyledonous and dicotyledonous weeds are grown in standard soil in plastic pots under greenhouse conditions. The test substances are applied at the 3- to 6-leaf stage of the test plants. The test substances are applied (500 l of water/ha) as an aqueous suspension (prepared using a 25% wettable powder (Example F3, b)) or as an emulsion (prepared using a 25% emulsion concentrate (Example F1, c)) at an application rate of 500 g of active substance/ha. […]

Question: With Cc1cc(C)c(C2C(=O)N3CCOCCN3C2=O)c(C)c1 [Compound No. 1.01] as the compound, how does the “herbicidal action compared with compound A of the prior art” value read?
Answer: considerably better herbicidal action
